# Source: patent US10052320B2, “Substituted quinoxalines as FGFR kinase inhibitors” (ASTEX THERAPEUTICS LIMITED, priority 2011, dated 2018)
# Read-outs that look alike come from different tables or passages of the source.
# What was measured:
# [1] = molecular target: FGFR1 (h) (Homo sapiens, UniProt P11362); experiment: FGFR1 (enzymatic assay), TR-FRET; assay type: biochemical; conditions: read-out: FGFR 1 pIC50 (converted)
# Procedure: In a final reaction volume of 30 μL, FGFR1 (h) (25 ng/ml) was incubated with 50 mM HEPES pH 7.5, 6 mM MnCl2, 1 mM DTT, 0.1 mM Na3VO4, 0.01% Triton-X-100, 500 nM Btn-Flt3 and 5 μM ATP in the presence of compound (1% DMSO final). […] Time-Resolved Fluorescence Resonance Energy Transfer (TR-FRET) signal (ex340 nm. Em 620 nm, em 655 nm) was measured afterwards and results are expressed in RFU (Relative Fluorescence Units).
# [2] = molecular target: Ba/F3-FGFR1-transfected cells (Homo sapiens, UniProt P11362); experiment: Ba/F3-FGFR1 (minus IL3) cellular proliferation assay, Alamar Blue; assay type: cell-based; conditions: for BAF3-FGFR 1 (MIN IL3) 384 well pIC50: minus IL3, 384 well; for BAF3-FGFR 1 (MIN IL3) 96 well pIC50: minus IL3, 96 well
# Procedure: (§1) Ba/F3-FGFR1 (Minus IL3 or Plus IL3) (Cellular Proliferation Assay)
# (§2) Cells were put in an incubator at 37° C. and 5% CO2. After 24 hours, 10 μl of Alamar Blue solution (0.5 mM K3Fe(CN)6, 0.5 mM KaFe(CN)6, 0.15 mM Resazurin and 100 mM Phosphate Buffer) was added to the wells, incubated for 4 hours at 37° C. and 5% CO2 before RFU's (Relative Fluorescence Units) (ex. 540 nm., em. 590 nm.) were measured in a flurorescence plate reader. […]
# (§3) In a 96 well plate, 180 μl cell culture medium (phenol red free RPMI-1640, 10% FBS, 2 mM L-Glutamine and 50 μg/ml Gentamycin) containing 10000 cells per well of Ba/F3-FGFR1-transfected cells were pipette and 20 μl of compound dilution in DMSO was added. Cells were put in an incubator at 37° C. and 5% CO2. After 24 hours, 40 μl of Alamar Blue solution (0.5 mM K3Fe(CN)6, 0.5 mM KaFe(CN)6, 0.15 mM Resazurin and 100 mM Phosphate Buffer) was added to the wells, incubated for 4 hours at 37° C. and 5% CO2 before RFU's (Relative Fluorescence Units) (ex. 540 nm., em. 590 nm.) were measured in a flurorescence plate reader.
# [3] = system: Ba/F3-FGFR1-transfected cells in the presence of 10 ng/ml murine IL3; experiment: Ba/F3-FGFR1 (plus IL3) cellular proliferation counterscreen, Alamar Blue; assay type: cell-based; conditions: Mus musculus
# Procedure: as §1
# as §3, with “a 384” for “a 96”, “plate, 100 nl of compound dilution in DMSO was sprayed before adding 50” for “plate, 180”, “containing 20000” for “containing 10000”, “Ba/F3-FGFR1-transfected cells.” for “Ba/F3-FGFR1-transfected cells were pipette and 20 μl of compound dilution in DMSO was added.”, “hours, 10” for “hours, 40”
# As a counterscreen the same experiment was performed in the presence of 10 ng/ml murine IL3.
# as §3
# [4] = molecular target: T1, Ba/F3-Flt3-transfected cells (Homo sapiens, UniProt P36888, cells depend on it, form not given); experiment: Ba/F3-Flt3 (minus IL3) cellular proliferation assay, Alamar Blue; assay type: cell-based
# T1 sequence (P36888 1-993): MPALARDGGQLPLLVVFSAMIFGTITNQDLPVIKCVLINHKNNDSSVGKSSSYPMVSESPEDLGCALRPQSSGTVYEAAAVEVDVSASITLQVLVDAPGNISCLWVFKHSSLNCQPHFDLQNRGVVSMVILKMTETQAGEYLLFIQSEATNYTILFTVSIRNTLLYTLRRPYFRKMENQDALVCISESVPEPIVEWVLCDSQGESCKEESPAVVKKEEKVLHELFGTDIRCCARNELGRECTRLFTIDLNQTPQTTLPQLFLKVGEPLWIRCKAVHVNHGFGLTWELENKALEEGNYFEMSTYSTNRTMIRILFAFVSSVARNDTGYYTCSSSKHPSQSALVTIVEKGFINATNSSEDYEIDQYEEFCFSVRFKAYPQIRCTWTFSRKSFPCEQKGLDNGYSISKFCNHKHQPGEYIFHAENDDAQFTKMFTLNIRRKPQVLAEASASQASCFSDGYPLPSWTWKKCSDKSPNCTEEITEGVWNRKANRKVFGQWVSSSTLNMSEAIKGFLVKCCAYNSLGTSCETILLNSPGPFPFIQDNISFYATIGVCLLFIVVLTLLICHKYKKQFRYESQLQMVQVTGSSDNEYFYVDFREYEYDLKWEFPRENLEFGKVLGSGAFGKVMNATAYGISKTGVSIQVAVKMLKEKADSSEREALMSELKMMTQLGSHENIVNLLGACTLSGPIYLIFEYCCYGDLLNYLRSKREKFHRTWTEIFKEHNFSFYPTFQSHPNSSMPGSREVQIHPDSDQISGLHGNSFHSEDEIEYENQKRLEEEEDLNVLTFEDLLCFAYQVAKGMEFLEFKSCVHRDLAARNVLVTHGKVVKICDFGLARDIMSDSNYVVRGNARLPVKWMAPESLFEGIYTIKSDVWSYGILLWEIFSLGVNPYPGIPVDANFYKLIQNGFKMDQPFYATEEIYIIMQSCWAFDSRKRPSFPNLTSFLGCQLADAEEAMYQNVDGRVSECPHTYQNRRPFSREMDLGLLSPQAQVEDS
# Procedure: Ba/F3-Flt3 (Minus IL3 or Plus IL3) (Cellular Proliferation Assay)
# as §2
# as §3, with “Ba/F3-Flt3-transfected” for “Ba/F3-FGFR1-transfected”
# [5] = plus IL3, 384 well, read-out: BAF3-FGFR 1 (PLUS IL3) 384 well pIC50 (converted)
# [6] = plus IL3, 96 well, read-out: BAF3-FGFR 1 (PLUS IL3) 96 well pIC50 (converted)
# Sequence of FGFR1 (h) (P11362 22-822): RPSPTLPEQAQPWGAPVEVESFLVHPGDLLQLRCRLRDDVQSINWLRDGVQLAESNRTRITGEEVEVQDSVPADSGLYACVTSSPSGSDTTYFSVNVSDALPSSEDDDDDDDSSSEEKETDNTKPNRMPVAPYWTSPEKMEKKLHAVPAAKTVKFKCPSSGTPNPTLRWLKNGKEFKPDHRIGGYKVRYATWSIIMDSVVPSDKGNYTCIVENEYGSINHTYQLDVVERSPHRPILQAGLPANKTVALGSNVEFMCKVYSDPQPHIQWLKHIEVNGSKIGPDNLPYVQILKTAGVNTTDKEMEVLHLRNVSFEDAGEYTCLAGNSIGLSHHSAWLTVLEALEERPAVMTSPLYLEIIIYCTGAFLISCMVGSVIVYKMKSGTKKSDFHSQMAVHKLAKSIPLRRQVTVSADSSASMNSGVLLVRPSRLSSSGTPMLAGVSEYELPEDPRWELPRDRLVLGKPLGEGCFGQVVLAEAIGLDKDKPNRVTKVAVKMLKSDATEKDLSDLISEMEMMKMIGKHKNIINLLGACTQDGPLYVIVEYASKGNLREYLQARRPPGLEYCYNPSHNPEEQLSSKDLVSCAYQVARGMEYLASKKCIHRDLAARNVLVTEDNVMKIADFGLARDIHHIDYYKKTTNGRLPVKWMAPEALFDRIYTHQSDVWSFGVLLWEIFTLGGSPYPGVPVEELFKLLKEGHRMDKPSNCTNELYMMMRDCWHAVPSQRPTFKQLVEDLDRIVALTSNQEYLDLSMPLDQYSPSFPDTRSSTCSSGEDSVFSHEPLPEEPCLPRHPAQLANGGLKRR
# Sequence of Ba/F3-FGFR1-transfected cells (P11362 whole entry, change not shown): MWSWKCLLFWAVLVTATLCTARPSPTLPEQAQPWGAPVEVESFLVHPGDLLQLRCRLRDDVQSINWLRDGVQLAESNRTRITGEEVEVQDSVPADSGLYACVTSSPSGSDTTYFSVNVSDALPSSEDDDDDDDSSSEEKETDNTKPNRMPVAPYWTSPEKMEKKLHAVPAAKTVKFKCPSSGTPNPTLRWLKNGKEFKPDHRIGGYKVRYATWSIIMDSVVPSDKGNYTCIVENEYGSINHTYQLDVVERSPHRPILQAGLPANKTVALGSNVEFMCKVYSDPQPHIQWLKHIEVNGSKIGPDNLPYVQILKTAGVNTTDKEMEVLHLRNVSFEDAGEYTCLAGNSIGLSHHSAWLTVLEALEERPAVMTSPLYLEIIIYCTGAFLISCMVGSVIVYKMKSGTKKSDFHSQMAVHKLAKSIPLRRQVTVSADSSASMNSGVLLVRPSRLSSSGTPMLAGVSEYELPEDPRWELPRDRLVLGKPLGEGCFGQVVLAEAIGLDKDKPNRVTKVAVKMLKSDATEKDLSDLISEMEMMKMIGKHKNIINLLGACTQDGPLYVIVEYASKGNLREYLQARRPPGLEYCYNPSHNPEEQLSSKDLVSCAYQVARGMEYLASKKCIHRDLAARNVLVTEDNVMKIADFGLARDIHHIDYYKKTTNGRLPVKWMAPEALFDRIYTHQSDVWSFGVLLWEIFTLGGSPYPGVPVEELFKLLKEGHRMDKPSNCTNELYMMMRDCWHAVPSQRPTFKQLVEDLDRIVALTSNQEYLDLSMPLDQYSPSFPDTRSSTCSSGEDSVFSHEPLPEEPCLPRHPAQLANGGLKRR
IC50 [1],BAF3-FGFR 1 (MIN IL3) 384 well pIC50 [2],"BAF3-FLT3 (MIN IL3) 96 well pIC50 ([4]; minus IL3, 96 well)","BAF3-FLT3 (MIN IL3) 384 well pIC50 ([4]; minus IL3, 384 well)",BAF3-FGFR 1 (MIN IL3) 96 well pIC50 [2],BAF3-FLT3 (MIN IL3) 96 well pIC50 ([4]; minus IL3),BAF3-FLT3 (MIN IL3) 384 well pIC50 ([4]; minus IL3),Structure (SMILES),"IC50 [3, 5]","IC50 [3, 6]"
28.2 nM,<5,<5,<5,,,,COc1cc(OC)cc(N(CC2CC2)c2ccc3ncc(C#Cc4cncn4C)nc3c2)c1 [Compound 22],> 10000 nM,
269 nM,<5,,,<5,<5,<5,COc1cc(OC)cc(N(CC2CC2)c2ccc3ncc(C(=O)Nc4cncn4C)nc3c2)c1 [Compound 27],> 10000 nM,> 10000 nM
2400 nM,<5,,,,<5,<5,COc1cc(OC)cc(N(CC2CC2)c2ccc3ncc(NC(=O)c4ccc(F)cc4)nc3c2)c1 [Compound 28],> 10000 nM,> 10000 nM
55 nM,6.41,,,,,<5,CO/N=C(\C)c1cnc2ccc(N(CCO)c3cc(OC)cc(OC)c3)cc2n1 [Compound 29],> 10000 nM,
12 nM,6.36,,,,,<5,COc1cc(OC)cc(N(CCN2CCOCC2)c2ccc3ncc(-c4ccc(NC(=O)N5CCOCC5)nc4)nc3c2)c1 [Compound 35],> 10000 nM,
30.2 nM,5.16,5.59,5.05,5.4,,,COc1cc(OC)cc(N(CC2CC2)c2ccc3ncc(-c4ccnc(N5CCN(C)CC5)c4)nc3c2)c1 [Compound 37],> 10000 nM,7590 nM
15.1 nM,6.31,,,,,<5,COc1cc(OC)cc(N(CCO)c2ccc3ncc(-n4cnc(CO)c4)nc3c2)c1 [Compound 38],> 10000 nM,
31.6 nM,<5,,,,<5,<5,COc1cc(OC)cc(N(CC2CC2)c2ccc3ncc(-c4c[nH]cn4)nc3c2)c1 [Compound 39],> 10000 nM,
15.8 nM,6.28,,,,,<5,COc1cc(OC)cc(N(CCCO)c2ccc3ncc(-c4ccnc(C(=O)N5CCOCC5)c4)nc3c2)c1 [Compound 43],> 10000 nM,
17.4 nM,<5,,,,,<5,COc1cc(OC)cc(N(CCCNCC(=O)O)c2ccc3ncc(-c4ccnc(C(=O)NCCCCN)c4)nc3c2)c1 [Compound 44],> 10000 nM,
316 nM,<5,,,,5.2,<5,COc1cc(OC)cc(N(CC2CC2)c2ccc3ncc(N4CCN(CCO)CC4)nc3c2)c1 [Compound 49],> 10000 nM,
3.63 nM,6.22,,,,,5.28,COc1cc(OC)cc(N(CCN2CCNCC2)c2ccc3ncc(-c4ccc(N)nc4)nc3c2)c1 [Compound 59],> 10000 nM,
537 nM,<5,<5,<5,,,,COc1cc(OC)cc(N(CC2CC2)c2ccc3ncc(N4CCOCC4)nc3c2)c1 [Compound 63],> 10000 nM,
437 nM,<5,~5.12,<5,,,,COc1cc(OC)cc(N(CC2CC2)c2ccc3ncc(N4CCN(C)CC4)nc3c2)c1 [Compound 64],> 10000 nM,
3.31 nM,6.23,,,,,5,COc1cc(OC)cc(N(CCNC(C)C)c2ccc3ncc(N4CCC(CN)CC4)nc3c2)c1 [Compound 67],8510 nM,
25.7 nM,6.13,,,,,<5,COc1cc(OC)cc(N(CCN2CCN(C(C)=O)CC2)c2ccc3ncc(-c4ccc(N)nc4)nc3c2)c1 [Compound 68],> 10000 nM,
2.24 nM,7.12,,,,,<5,COc1cc(OC)cc(N(CCNC(C)C)c2ccc3ncc(-n4cnc(CO)c4)nc3c2)c1 [Compound 77],> 10000 nM,
589 nM,,<5,,5.06,,,COc1cc(OC)cc(N(CC2CC2)c2ccc3ncc(-c4ccnc(N5CCOCC5)c4)nc3c2)c1 [Compound 90],,> 10000 nM
> 10000 nM,<5,,,<5,<5,<5,COc1cc(OC)cc(N(CC2CC2)c2ccc3ncc(C(=O)N4CCC4)nc3c2)c1 [Compound 93],> 10000 nM,> 10000 nM
19.5 nM,5.62,,,,,<5,CNc1ccc(-c2cnc3ccc(N(CCCNCC(F)(F)F)c4cc(OC)cc(OC)c4)cc3n2)cn1 [Compound 129],> 10000 nM,
17.4 nM,5.1,,,,,<5,COc1cc(OC)cc(N(CCCO)c2ccc3ncc(-c4ccnc(C(=O)NCCCCCN)c4)nc3c2)c1 [Compound 130],> 10000 nM,
